Measurements from PubChem BioAssay (NCI).
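Briefly, cells in 96-well plates were exposed to five compound concentrations for 48 h, and endpoints were estimated by linear interpolation. GI50 is the concentration that inhibits growth by half. TGI marks complete inhibition of growth.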

Columns and labels:
Experiment in all cases: DTP human tumour cell line panel, 48 h; in the data active means GI50 below about 0.43 µM; inactive means the rest
[1] = system: 786-0 renal
[2] = system: A498 renal
[3] = system: A549 NSCLC
[4] = system: ACHN renal
[5] = system: BT-549 breast
[6] = system: CAKI-1 renal
[7] = system: CCRF-CEM leukemia
[8] = system: COLO 205 colon
[9] = system: DU-145 prostate
[10] = system: EKVX NSCLC
[11] = system: HCC-2998 colon
[12] = system: HCT-116 colon
[13] = system: HCT-15 colon
[14] = system: HL-60(TB) leukemia
[15] = system: HOP-62 NSCLC
[16] = system: HS 578T breast
[17] = system: HT29 colon
[18] = system: IGROV1 ovarian
[19] = system: K-562 leukemia
[20] = system: KM12 colon
[21] = system: LOX IMVI melanoma
[22] = system: M14 melanoma
[23] = system: MALME-3M melanoma
[24] = system: MCF7 breast
[25] = system: MDA-MB-231 breast
[26] = system: MDA-MB-435
[27] = system: MOLT-4 leukemia
[28] = system: NCI-H226 lung
[29] = system: NCI-H23 lung
[30] = system: NCI-H460 lung
[31] = system: NCI-H522 lung
[32] = system: NCI/ADR-RES ovarian
[33] = system: OVCAR-3 ovarian
[34] = system: OVCAR-4 ovarian
[35] = system: OVCAR-5 ovarian
[36] = system: OVCAR-8 ovarian
[37] = system: PC-3 prostate
[38] = system: RPMI-8226 leukemia
[39] = system: RXF 393 renal
[40] = system: SF-268 CNS
[41] = system: SF-295 CNS
[42] = system: SF-539 CNS
[43] = system: SK-MEL-2 melanoma
[44] = system: SK-MEL-28 melanoma
[45] = system: SK-MEL-5 melanoma
[46] = system: SK-OV-3 ovarian
[47] = system: SN12C renal
[48] = system: SNB-19 CNS
[49] = system: SNB-75 CNS
[50] = system: SR leukemia
[51] = system: SW-620 colon
[52] = system: T-47D breast
[53] = system: TK-10 renal
[54] = system: U251 CNS
[55] = system: UACC-257 melanoma
[56] = system: UACC-62 melanoma
[57] = system: UO-31 renal
[58] = system: HOP-92 NSCLC

CC1=NN(C(=O)c2nn(-c3ccc(Cl)cc3)cc2O)C(=O)C1
inactive: GI50 [1] 5.33 µM | GI50 [2] 2.92 µM | GI50 [3] 2.92 µM | GI50 [4] 1.61 µM | GI50 [5] 0.766 µM | GI50 [6] 1.89 µM | GI50 [7] 0.608 µM | GI50 [8] 3.78 µM | GI50 [9] 8.08 µM | GI50 [10] 1.93 µM | GI50 [11] 3.37 µM | GI50 [12] 0.743 µM | GI50 [13] 0.845 µM | GI50 [14] 1.17 µM | GI50 [15] 1.13 µM | GI50 [17] 4.44 µM | GI50 [18] 0.505 µM | GI50 [19] 0.501 µM | GI50 [20] 4.52 µM | GI50 [21] 2.66 µM | GI50 [22] 2.8 µM | GI50 [23] 9.29 µM | GI50 [24] 4.65 µM | GI50 [25] 2.75 µM | GI50 [26] 4.12 µM | GI50 [27] 1.24 µM | GI50 [28] 3.17 µM | GI50 [29] 3.03 µM | GI50 [31] 1.44 µM | GI50 [32] 1.83 µM | GI50 [33] 1.34 µM | GI50 [34] 3 µM | GI50 [36] 1.49 µM | GI50 [38] 1.07 µM | GI50 [39] 2.18 µM | GI50 [40] 0.632 µM | GI50 [42] 1.9 µM | GI50 [43] 53.7 µM | GI50 [44] 9.13 µM | GI50 [45] 3.45 µM | GI50 [46] 1.79 µM | GI50 [47] 1.81 µM | GI50 [48] 3.16 µM | GI50 [49] 0.532 µM | GI50 [51] 4.55 µM | GI50 [52] 2.87 µM | GI50 [53] 0.578 µM | GI50 [54] 0.734 µM | GI50 [55] 6.27 µM | GI50 [56] 2.28 µM | GI50 [57] 2.87 µM
> 76.6 µM: TGI [39]
> 60.4 µM: TGI [1]
> 52.7 µM: TGI [30]
7.46 µM: TGI [14]
> 36.9 µM: TGI [45]
26.4 µM: TGI [6]
41 µM: TGI [18]
> 67.5 µM: TGI [28]
> 27.9 µM: TGI [33]
> 87.4 µM: TGI [42]
> 82 µM: TGI [2]
> 100 µM: TGI [3] | TGI [4] | TGI [5] | TGI [9] | TGI [10] | TGI [11] | TGI [12] | TGI [13] | TGI [16] | TGI [17] | TGI [19] | TGI [20] | TGI [21] | TGI [24] | TGI [25] | TGI [26] | TGI [27] | TGI [29] | TGI [34] | TGI [36] | TGI [37] | TGI [40] | TGI [43] | TGI [44] | TGI [46] | TGI [47] | TGI [48] | TGI [49] | TGI [51] | TGI [52] | TGI [53] | TGI [54] | TGI [57]
> 88.9 µM: TGI [38]
> 78.9 µM: TGI [35]
> 22 µM: TGI [7]
> 82.6 µM: TGI [8]
28.9 µM: TGI [55]
active: GI50 [16] 0.34 µM | GI50 [30] 0.41 µM | GI50 [37] 0.348 µM | GI50 [41] 0.285 µM | GI50 [50] 0.419 µM
> 52.2 µM: TGI [32]
> 77.6 µM: TGI [15]
7.97 µM: TGI [50]
> 80.8 µM: TGI [56]
99.5 µM: TGI [23]
> 86.5 µM: TGI [31]
> 53.5 µM: TGI [22]

O=C1c2ccn(CCCCN(CCO)CCO)c2C(=O)c2c1c(O)c1ccccc1c2O
> 48.4 µM: TGI [1]
> 20.7 µM: TGI [37]
26.1 µM: TGI [30]
42 µM: TGI [41]
14.2 µM: TGI [11]
65.5 µM: TGI [49]
7.33 µM: TGI [3]
35.2 µM: TGI [23]
29.6 µM: TGI [53]
> 69.6 µM: TGI [52]
3.97 µM: TGI [25]
> 58.6 µM: TGI [39]
14.8 µM: TGI [38]
> 58.1 µM: TGI [24]
> 92.7 µM: TGI [31]
3.64 µM: TGI [21]
2.14 µM: TGI [13]
11.2 µM: TGI [7]
21.7 µM: TGI [6]
24.4 µM: TGI [55]
45 µM: TGI [35]
25 µM: TGI [47]
57.7 µM: TGI [4]
14.7 µM: TGI [51]
39.7 µM: TGI [2]
inactive: GI50 [1] 5.39 µM | GI50 [2] 13.4 µM | GI50 [3] 2.32 µM | GI50 [4] 21.6 µM | GI50 [5] 20.7 µM | GI50 [6] 8.24 µM | GI50 [7] 2.07 µM | GI50 [8] 4.45 µM | GI50 [9] 15.2 µM | GI50 [10] 23.3 µM | GI50 [11] 3.55 µM | GI50 [12] 2.04 µM | GI50 [13] 0.948 µM | GI50 [14] 3.17 µM | GI50 [15] 16.3 µM | GI50 [58] 17.7 µM | GI50 [16] 17.4 µM | GI50 [17] 3.39 µM | GI50 [18] 4.97 µM | GI50 [19] 4.41 µM | GI50 [20] 1.75 µM | GI50 [21] 1.04 µM | GI50 [22] 2.37 µM | GI50 [23] 10 µM | GI50 [24] 6.12 µM | GI50 [25] 1.89 µM | GI50 [26] 3.04 µM | GI50 [27] 2.55 µM | GI50 [28] 64 µM | GI50 [29] 1.66 µM | GI50 [30] 7.1 µM | GI50 [31] 9.29 µM | GI50 [32] 3.31 µM | GI50 [33] 22.2 µM | GI50 [34] 31.7 µM | GI50 [35] 19.1 µM | GI50 [36] 3.61 µM | GI50 [37] 3.05 µM | GI50 [38] 5.62 µM | GI50 [39] 5.19 µM | GI50 [40] 13.7 µM | GI50 [41] 10.8 µM | GI50 [42] 7.88 µM | GI50 [44] 5.05 µM | GI50 [45] 13.2 µM | GI50 [46] 7.74 µM | GI50 [47] 6.85 µM | GI50 [48] 20.2 µM | GI50 [49] 21.4 µM | GI50 [51] 3.12 µM | GI50 [52] 22.9 µM | GI50 [53] 6.66 µM | GI50 [55] 4.83 µM | GI50 [56] 1.09 µM | GI50 [57] 12.5 µM
59.3 µM: TGI [16]
78.9 µM: TGI [45]
3.02 µM: TGI [29]
> 63.2 µM: TGI [40]
> 50.5 µM: TGI [15]
> 75.7 µM: TGI [10]
> 100 µM: TGI [8] | TGI [17] | TGI [18] | TGI [19] | TGI [28] | TGI [33] | TGI [34] | TGI [36] | TGI [44] | TGI [48] | TGI [57]
> 80.6 µM: TGI [42]
2.77 µM: TGI [56]
12.7 µM: TGI [32]
50.8 µM: TGI [58]
34.8 µM: TGI [9]
3.59 µM: TGI [20]
60.9 µM: TGI [5]
> 43.3 µM: TGI [46]
